± gives the expanded uncertainty stated by the source.
Assay: xn = mol fraction of the nth substance listed
Settings: Liquid, Vibrating tube method

CCCCCCCCCC [decane] + CCCCCCC
Settings	mass density [kg/m3]
343.11 K, 10000 kPa, x2 = 0.2594	691.9 ± 0.46
343.11 K, 10000 kPa, x2 = 0.952	656.24 ± 0.49
343.11 K, 11000 kPa, x2 = 0.2594	692.89 ± 0.47
343.11 K, 11000 kPa, x2 = 0.952	657.38 ± 0.5
343.11 K, 12000 kPa, x2 = 0.2594	693.86 ± 0.47
343.11 K, 12000 kPa, x2 = 0.952	658.49 ± 0.51
343.11 K, 13000 kPa, x2 = 0.2594	694.82 ± 0.48
343.11 K, 13000 kPa, x2 = 0.952	659.59 ± 0.51
343.11 K, 14000 kPa, x2 = 0.2594	695.76 ± 0.49
343.11 K, 14000 kPa, x2 = 0.952	660.67 ± 0.52
343.11 K, 15000 kPa, x2 = 0.2594	696.69 ± 0.49
343.11 K, 15000 kPa, x2 = 0.952	661.74 ± 0.53
343.11 K, 16000 kPa, x2 = 0.2594	697.6 ± 0.5
343.11 K, 16000 kPa, x2 = 0.952	662.78 ± 0.54
343.11 K, 17000 kPa, x2 = 0.2594	698.5 ± 0.51
343.11 K, 17000 kPa, x2 = 0.952	663.81 ± 0.54
343.11 K, 18000 kPa, x2 = 0.2594	699.38 ± 0.51
343.11 K, 18000 kPa, x2 = 0.952	664.84 ± 0.55
343.11 K, 19000 kPa, x2 = 0.2594	700.22 ± 0.52
343.11 K, 19000 kPa, x2 = 0.952	665.84 ± 0.56
343.11 K, 20000 kPa, x2 = 0.2594	701.09 ± 0.53
343.11 K, 20000 kPa, x2 = 0.952	666.82 ± 0.57
343.11 K, 21000 kPa, x2 = 0.2594	701.92 ± 0.53
343.11 K, 21000 kPa, x2 = 0.952	667.78 ± 0.58
343.11 K, 22000 kPa, x2 = 0.2594	702.73 ± 0.54
343.11 K, 22000 kPa, x2 = 0.952	668.7 ± 0.58
343.11 K, 23000 kPa, x2 = 0.2594	703.51 ± 0.55
343.11 K, 23000 kPa, x2 = 0.952	669.62 ± 0.59
343.11 K, 24000 kPa, x2 = 0.2594	704.28 ± 0.55
343.11 K, 24000 kPa, x2 = 0.952	670.52 ± 0.6
343.11 K, 25000 kPa, x2 = 0.2594	705.05 ± 0.56
343.11 K, 25000 kPa, x2 = 0.952	671.4 ± 0.61
353.06 K, 1000 kPa, x2 = 0.0531	682.62 ± 0.42
353.06 K, 2000 kPa, x2 = 0.0531	683.77 ± 0.42
353.06 K, 3000 kPa, x2 = 0.0531	684.88 ± 0.42
353.06 K, 4000 kPa, x2 = 0.0531	685.98 ± 0.43
353.06 K, 5000 kPa, x2 = 0.0531	687.07 ± 0.43
353.06 K, 6000 kPa, x2 = 0.0531	688.13 ± 0.44
353.06 K, 7000 kPa, x2 = 0.0531	689.17 ± 0.44
353.06 K, 8000 kPa, x2 = 0.0531	690.21 ± 0.45
353.06 K, 9000 kPa, x2 = 0.0531	691.24 ± 0.45
353.06 K, 10000 kPa, x2 = 0.0531	692.24 ± 0.46
353.06 K, 11000 kPa, x2 = 0.0531	693.24 ± 0.47
353.06 K, 12000 kPa, x2 = 0.0531	694.22 ± 0.47
353.06 K, 13000 kPa, x2 = 0.0531	695.18 ± 0.48
353.06 K, 14000 kPa, x2 = 0.0531	696.13 ± 0.48
353.06 K, 15000 kPa, x2 = 0.0531	697.07 ± 0.49
353.06 K, 16000 kPa, x2 = 0.0531	698 ± 0.5
353.06 K, 17000 kPa, x2 = 0.0531	698.9 ± 0.5
353.06 K, 18000 kPa, x2 = 0.0531	699.8 ± 0.51
353.06 K, 19000 kPa, x2 = 0.0531	700.69 ± 0.51
353.06 K, 20000 kPa, x2 = 0.0531	701.57 ± 0.52
353.06 K, 21000 kPa, x2 = 0.0531	702.43 ± 0.53
353.06 K, 22000 kPa, x2 = 0.0531	703.3 ± 0.53
353.06 K, 23000 kPa, x2 = 0.0531	704.13 ± 0.54
353.06 K, 24000 kPa, x2 = 0.0531	704.96 ± 0.55
353.06 K, 25000 kPa, x2 = 0.0531	705.78 ± 0.55
353.08 K, 1000 kPa, x2 = 0.5219	662.57 ± 0.43
353.08 K, 1000 kPa, x2 = 0.777	647.84 ± 0.43
353.08 K, 2000 kPa, x2 = 0.5219	663.78 ± 0.43
353.08 K, 2000 kPa, x2 = 0.777	649.19 ± 0.44
353.08 K, 3000 kPa, x2 = 0.5219	664.95 ± 0.43
353.08 K, 3000 kPa, x2 = 0.777	650.47 ± 0.44
353.08 K, 4000 kPa, x2 = 0.5219	666.13 ± 0.44
353.08 K, 4000 kPa, x2 = 0.777	651.73 ± 0.45
353.08 K, 5000 kPa, x2 = 0.5219	667.28 ± 0.45
353.08 K, 5000 kPa, x2 = 0.777	653.01 ± 0.45
353.08 K, 6000 kPa, x2 = 0.5219	668.44 ± 0.45
353.08 K, 6000 kPa, x2 = 0.777	654.25 ± 0.46
353.08 K, 7000 kPa, x2 = 0.5219	669.57 ± 0.46
353.08 K, 7000 kPa, x2 = 0.777	655.46 ± 0.47
353.08 K, 8000 kPa, x2 = 0.5219	670.7 ± 0.46
353.08 K, 8000 kPa, x2 = 0.777	656.67 ± 0.47
353.08 K, 9000 kPa, x2 = 0.5219	671.82 ± 0.47
353.08 K, 9000 kPa, x2 = 0.777	657.88 ± 0.48
353.08 K, 10000 kPa, x2 = 0.5219	672.93 ± 0.48
353.08 K, 10000 kPa, x2 = 0.777	659.06 ± 0.49
353.08 K, 11000 kPa, x2 = 0.5219	674.03 ± 0.48
353.08 K, 11000 kPa, x2 = 0.777	660.22 ± 0.49
353.08 K, 12000 kPa, x2 = 0.5219	675.1 ± 0.49
353.08 K, 12000 kPa, x2 = 0.777	661.36 ± 0.5
353.08 K, 13000 kPa, x2 = 0.5219	676.17 ± 0.49
353.08 K, 13000 kPa, x2 = 0.777	662.49 ± 0.51
353.08 K, 14000 kPa, x2 = 0.5219	677.22 ± 0.5
353.08 K, 14000 kPa, x2 = 0.777	663.61 ± 0.51
353.08 K, 15000 kPa, x2 = 0.5219	678.26 ± 0.51
353.08 K, 15000 kPa, x2 = 0.777	664.7 ± 0.52
353.08 K, 16000 kPa, x2 = 0.5219	679.28 ± 0.52
353.08 K, 16000 kPa, x2 = 0.777	665.77 ± 0.53
353.08 K, 17000 kPa, x2 = 0.5219	680.26 ± 0.52
353.08 K, 17000 kPa, x2 = 0.777	666.82 ± 0.54
353.08 K, 18000 kPa, x2 = 0.5219	681.28 ± 0.53
353.08 K, 18000 kPa, x2 = 0.777	667.86 ± 0.54
353.08 K, 19000 kPa, x2 = 0.5219	682.2 ± 0.54

From the NIST ThermoML archive (doi:10.1016/j.jct.2011.08.016)
